The values below come from ChEMBL document CHEMBL3045980, “Chemistry of insect antifeedants from Azadirachta indica (part 11): Characterisation and structure activity relationships of some novel rearranged azadirachtins” (1991).

The test system of test [1] is Spodoptera littoralis. Kind of test: Antifeedant activity against final stadium larval stage of Spodoptera littoralis in compound pretreated glass fibre disks assessed as mass of disks eaten at 1 ppm by choice bioassay. Format: functional.
Test [2] has as its system Spodoptera littoralis. Kind of test: Antifeedant activity against final stadium larval stage of Spodoptera littoralis in compound pretreated glass fibre disks assessed as mass of disks eaten at 10 ppm by choice bioassay. Format: functional.

On to `C/C=C(\C)C(=O)O[C@H]1C[C@@H](OC(C)=O)[C@@]2(C(=O)OC)CO[C@H]3[C@@H](O)[C@@](C)([C@]45O[C@@]4(C)[C@H]4C[C@@H]5O[C@@H]5OCC[C@@]54OC)[C@@H]4[C@@](OC)(C(=O)OC)OC[C@@]14[C@@H]32`, for which the figures for the AFI in test [1] and in test [2] were 66% and 95%, respectively.
`C/C=C(\C)C(=O)O[C@H]1C[C@@H](O)[C@@]23CO[C@@H]4[C@@H](O)[C@]5(C)[C@@H]([C@]1(COC2=O)[C@@H]43)[C@](O)(C(=O)OC)O[C@@]51[C@H]2C[C@H]3[C@]4(C=CO[C@H]4O2)O[C@]31C`: the AFI was determined as 22% in test [1] and 16% in test [2].
Consider `C/C=C(\C)C(=O)O[C@H]1C[C@@H](OC(C)=O)[C@@]2(C(=O)OC)CO[C@@H]3[C@@H]2[C@]12CO[C@](OC)(C(=O)OC)[C@H]2[C@](C)([C@]12O[C@@]1(C)[C@H]1C[C@@H]2O[C@@H]2OCC[C@@]21O)[C@H]3O`, for which the AFI in test [1] came out at 35%; in test [2] it was 46%.
The like results for `C/C=C(\C)C(=O)O[C@H]1C[C@@H](OC(C)=O)[C@@]2(C(=O)OC)CO[C@H]3C(=O)[C@@](C)([C@]45O[C@@]4(C)[C@H]4C[C@@H]5O[C@@H]5OC=C[C@@]54O)[C@H]4[C@]1(CO[C@]4(O)C(=O)OC)[C@@H]32` [7-KETOAZADIRACHTIN] were, in that order, 21% and 23%.
The like results for `C/C=C(\C)C(=O)O[C@H]1C[C@@H](OC(C)=O)[C@@]2(C(=O)OC)CO[C@H]3C(=O)[C@@](C)([C@]45O[C@@]4(C)[C@H]4C[C@@H]5O[C@@H]5OCC[C@@]54O)[C@@H]4[C@@](OC)(C(=O)OC)OC[C@@]14[C@@H]32` were, in that order, 26% and 100%.
The like results for `C/C=C(\C)C(=O)O[C@H]1C[C@@H](OC(C)=O)[C@@]2(C(=O)OC)CO[C@H]3[C@@H](O)[C@@](C)([C@]45O[C@@]4(C)[C@H]4C[C@@H]5O[C@@H]5OCC[C@@]54O)[C@@H]4[C@@](OC)(C(=O)OC)OC[C@@]14[C@@H]32` were, in that order, 100% and 100%.
`C/C=C(\C)C(=O)O[C@H]1C[C@@H](OC(C)=O)[C@@]2(C(=O)OC)CO[C@H]3[C@@H](O)[C@@](C)([C@]45O[C@@]4(C)[C@@H]4C[C@H]5O[C@@H]5OC=C[C@@]54O)[C@H]4[C@]1(CO[C@]4(O)C(=O)OC)[C@@H]32` [AZADIRACHTIN A]: the AFI in test [1] was found to be 99%; in test [2] it was 100%.
As for `C/C=C(\C)C(=O)O[C@H]1C[C@@H](OC(C)=O)[C@@]2(C(=O)OC)CO[C@H]3C(=O)[C@@](C)([C@]45O[C@@]4(C)[C@H]4C[C@@H]5OC(=O)OCCC4=O)[C@@H]4[C@@](OC)(C(=O)OC)OC[C@@]14[C@@H]32`, the AFI is listed as 61% in test [1] and 63% in test [2].
In the same order, the values of `C/C=C(\C)C(=O)O[C@H]1C[C@@H](OC(C)=O)[C@@]2(C(=O)OC)CO[C@H]3C(=O)[C@@](C)([C@]45O[C@@]4(C)[C@H]4C[C@@H]5O[C@@H]5OCC[C@@]54OC)[C@@H]4[C@@](OC)(C(=O)OC)OC[C@@]14[C@@H]32` are 29% and 100%.
As to `C/C=C(\C)C(=O)O[C@H]1C[C@@H](OC(C)=O)[C@@]2(C(=O)OC)CO[C@H]3[C@H]4O[C@]5(C)[C@H](C6=CCOC6=O)C[C@H](O)[C@]5(O)[C@@]4(C)[C@H]4[C@]1(CO[C@]4(O)C(=O)OC)[C@@H]32`, the AFI in test [1] came to 41%; in test [2] it was 64%.
In the same order, the values of `CCC(C)C(=O)O[C@H]1C[C@@H](OC(C)=O)[C@@]2(C(=O)OC)CO[C@H]3[C@@H](O)[C@@](C)([C@]45O[C@@]4(C)[C@H]4C[C@@H]5O[C@@H]5OCC[C@@]54O)[C@@H]4[C@@](OC)(C(=O)OC)OC[C@@]14[C@@H]32` (some centres undefined) are 98% and 100%.
As to `C/C=C(\C)C(=O)O[C@H]1C[C@@H](OC(C)=O)[C@@]2(C(=O)OC)CO[C@@H]3[C@@H]2[C@]12CO[C@](OC)(C(=O)OC)[C@H]2[C@@]1(C)[C@@]32O[C@H]3C[C@@H]([C@@]4(OC)CCO[C@@H]4OC)[C@@](C)(O2)[C@]31O`, the values for the AFI in test [1] and in test [2] were 33% and 31%, respectively.
